# System: CML mononuclear cells
# Assay: Apoptosis of CML mononuclear cells
# Format: cell-based, human
# Settings: CML patient specimens
# Source text: Fresh bone marrow (BM) cells were obtained from 38 patients with CML and 5 non-leukemic donors, 25 AML, 17 ALL, and 8 normal specimens with informed consent according to the Declaration of Helsinki. Approval was obtained from Institutional Review Board at the School of Medicine in Shanghai Jiao Tong University. BM mononuclear cells were isolated by Ficoll density gradient centrifugation (Shanghai Second Reagent Factory, Shanghai, China). CD34^+ Cell were selected using EasySep® Human CD34 Positive Selection kit (Stem Cell Technologies, Vancouver, BC, Canada) according to the manufacturer's instructions. The purity of CD34 cells ranged between 92 and 98% in all samples detennined by flow cytometry. The CD34^+ cells were cultured in a serum-free medium (StemPro 34; Gibco BRL, Gaithersburg, Md.) supplemented with growth factors (PeproTech, London, United Kingdom) (20). The growth factors consisted of GM-CSF (200 pg/mL), G-CSF (1 ng/mL); SCF (200 pg/mL); LIF (50 pg/mL), MIP-1α (200 pg/mL) and IL-6 (1 ng/mL).
# Primitive AML and CML subpopulations (CD34^+ cells) were identified using CD34-PE in combination with CD38-APC, and followed by double-labeling with 7AAD and Annexin V antibodies for apoptosis assessment. […] Subsequently, the samples were incubated at room temperature for 15 minutes and analyzed by flow cytometry. […]
compound,measurement,value
"CC1=C(/C=C/C(C)=C/C=C/C(C)=C/C(=O)Nc2ccc(O)cc2)C(C)(C)CCC1 [fenretinide, N-(4-hydroxyphenyl)retinamide]",apoptosis in mononuclear cells,little apoptosis

# From patent US8088822B2, “Use of fenretinide or bioactive derivatives thereof and pharmaceutical compositions comprising the same” (priority 2008, dated 2012)
